Entries after “also recorded” stand apart in the source; their conditions may differ.
Tests used:
[1] = system: Male Sprague-Dawley rats; settings: rat, in vivo
[2] = system: Male Sprague-Dawley rats; settings: rat, in vivo; remark: listed apart in the source
[3] = system: formalin test; settings: literature; ifenprodil at a high dose; cited from earlier work
[4] = system: NMDA receptor; settings: literature, cited from earlier work; for motor impairment: relative to analgesic doses
[5] = system: NMDA polyamine site, forebrain membrane preparations; settings: cited from earlier work
[6] = system: cholinergic neurons of the QA lesioned striatum; settings: rat, in vivo
[7] = system: GABAergic neurons of the QA lesioned striatum; settings: rat, in vivo

C[C@]12N[C@H](Cc3ccccc31)c1ccccc12 [MK-801]
dose required to inhibit / significantly attenuate phase II flinches [1]: 30 µg | side effects at the dose attenuating phase II flinches [2]: side effects, including head weaving | toxicity at doses that decreased flinches [2]: clear toxicity | analgesic effect in the formalin test [3]: submaximal analgesic effect | analgesic activity [4]: show analgesic activity | motor impairment [4]: show motor impairment at equivalent doses

CC(C(O)c1ccc(O)cc1)N1CCC(Cc2ccccc2)CC1 (stereo not shown) [ifenprodil]
analgesic effect in the formalin test [3]: did not have an analgesic effect; also recorded: no effect

c1ccc(C2(N3CCCCC3)CCCCC2)cc1 [phenylcyclidine (PCP), phenylcyclidine]
analgesic activity [4]: show analgesic activity | motor impairment [4]: show motor impairment at equivalent doses

NCCCNCCCCNCCCN [spermine]
maximal effective concentration for enhancement of [3H]MK-801 binding [5]: about 20 μM

Gly-Glu-Gla-Gla-Leu-Gln-Gla-Asn-Gln-Gla-Leu-Ile-Arg-Gla-Lys-Ser-Asn-NH2 [Conantokin G]
dose required to inhibit / significantly attenuate phase I flinches [1]: 1.0 µg | dose required to inhibit / significantly attenuate phase II flinches [1]: 0.05 µg | QA lesion-induced loss of ChAT activity [6]: completely blocked | QA lesion-induced loss of GAD activity [7]: completely blocked; also recorded: complete prevention

Gly-Glu-Gla-Gla-Val-Ala-Lys-Met-Ala-Ala-Glu-Leu-Ala-Arg-Glu-Asn-Ile-Ala-Lys-Gly-Cys-Lys-Val-Asn-Cys-Tyr-Pro [Conantokin R]
dose required to inhibit / significantly attenuate phase I flinches [1]: 3.3 µg | dose required to inhibit / significantly attenuate phase II flinches [1]: 3.3 µg

β-endorphin
dose at which maximal possible effect was observed, phase I [1]: 1.0 µg | dose at which maximal possible effect was observed, phase II [1]: 3.3 µg | dose required to inhibit / significantly attenuate phase I flinches [1]: 0.3 µg | dose required to inhibit / significantly attenuate phase II flinches [1]: 0.6 µg | effect of the single agent alone [1]: no effect | effect on flinches in both phase I and phase II [1]: dose-dependent decrease in flinches | effect on phase I flinches [1]: no effect | effect on phase II flinches [1]: no effect | overt side effects [2]: overt signs of sedation and motor impairment
